Consider nine compounds from PubChem BioAssay (NCI).

Among the test systems are SNB-75 CNS; HCT-15 colon; BT-549 breast; RXF 393 renal; T-47D breast; HL-60(TB) leukemia; RPMI-8226 leukemia; SK-MEL-2 melanoma.
What all share (assay): NCI-60 cell line screen, 48 h

Where “and” joins values, the source holds several entries; their conditions need not be identical. Equal values may be shown once.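 Method: 48-hour compound exposure of cells in 96-well plates, five concentrations, linear interpolation of endpoints. GI50 = concentration required for 50% inhibition of growth. TGI denotes the concentration required for complete inhibition of growth.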

Turning to `OC(c1cc(-c2ccc(C(F)(F)F)cc2)nc(C(F)(F)F)c1)C1CCCCN1` (stereo unspecified), the GI50 in the assay on SNB-75 CNS was 1.37 µM and 3.96 µM; in the assay on HCT-15 colon, 1.7 µM; in the assay on BT-549 breast it was 1.7 µM; in the assay with T-47D breast it was 1.66 µM and 2.33 µM; in the assay on HL-60(TB) leukemia, 1.43 µM; in the assay with RPMI-8226 leukemia it was 0.418 µM. Moreover, the TGI in the assay with SNB-75 CNS is 2.69 µM and 10.6 µM; with HCT-15 colon it was 3.12 µM and 4.7 µM; in the assay with BT-549 breast, 3.08 µM; with RXF 393 renal, 3.15 µM; with T-47D breast it was 3.31 µM and 6.2 µM; with HL-60(TB) leukemia, 3.67 µM and 4.11 µM. The TGI in the assay on RPMI-8226 leukemia is 2.04 µM and 5.07 µM; in the assay on SK-MEL-2 melanoma, 3.42 µM and 3.49 µM.

As to `CC(C)[C@H](O)C(=O)N[C@@H](C)C(=O)N[C@@H]1C(=O)N(C)CCc2ccccc21`, the GI50 in the assay on SNB-75 CNS, in the assay on HCT-15 colon, in the assay on BT-549 breast, with RXF 393 renal, with T-47D breast and with HL-60(TB) leukemia was above 100 µM each time. The GI50 with RPMI-8226 leukemia and in the assay on SK-MEL-2 melanoma was above 100 µM in each case. Besides, the TGI in the assay on SNB-75 CNS, in the assay on HCT-15 colon, in the assay on BT-549 breast, with RXF 393 renal, in the assay on T-47D breast and in the assay with HL-60(TB) leukemia was above 100 µM throughout. The TGI in the assay with RPMI-8226 leukemia and with SK-MEL-2 melanoma was above 100 µM throughout.

In the case of `Nc1ccccc1O.O.O=C(O)C1[O][Sb][O]C1C(=O)O` (stereo unspecified), the GI50 in the assay on SNB-75 CNS is 24.9 µM; in the assay with HCT-15 colon it was 19.9 µM; with BT-549 breast, 14.9 µM; in the assay on RXF 393 renal, 6.35 µM; with T-47D breast, 12.2 µM; with HL-60(TB) leukemia, 1.86 µM. Further, the GI50 with RPMI-8226 leukemia is 1.51 µM; in the assay on SK-MEL-2 melanoma, 15 µM. For the same compound, the TGI in the assay on SNB-75 CNS came out at 40.5 µM; in the assay on HCT-15 colon it was 57.1 µM; in the assay with BT-549 breast it was 30.6 µM; with RXF 393 renal, 16.7 µM; in the assay on T-47D breast it was 34 µM; in the assay on HL-60(TB) leukemia, 10.6 µM. For the same compound, the TGI turned out to be 6.56 µM in the assay on RPMI-8226 leukemia and 32.1 µM in the assay with SK-MEL-2 melanoma.

As to `N#CCCN1C/C(=C/c2ccc(Br)cc2)C(=O)/C(=C/c2ccc(Br)cc2)C1`, the GI50 was 4.35 µM in the assay with SNB-75 CNS; 1.07 µM in the assay on HCT-15 colon; 1.56 µM in the assay on BT-549 breast; 1.55 µM in the assay with RXF 393 renal; 4.36 µM in the assay on T-47D breast; 2.55 µM with HL-60(TB) leukemia. For the same compound, the GI50 was 0.262 µM with RPMI-8226 leukemia and 2.6 µM in the assay with SK-MEL-2 melanoma. Moreover, the TGI with SNB-75 CNS was 31.4 µM; with HCT-15 colon, 2.9 µM; with BT-549 breast, 3.04 µM; in the assay with RXF 393 renal it was 3.04 µM; with T-47D breast, 28.2 µM; in the assay on HL-60(TB) leukemia, above 100 µM. Besides, the TGI was above 100 µM with RPMI-8226 leukemia and 6.54 µM in the assay with SK-MEL-2 melanoma.

In the case of `c1ccc2c(c1)[nH]c1c2cc[n+]2cc3c(cc12)CCCC3`, the GI50 was 3.07 µM in the assay with SNB-75 CNS; 23.3 µM in the assay with HCT-15 colon; 8.96 µM with BT-549 breast; 2.98 µM with RXF 393 renal; 2.47 µM in the assay with T-47D breast; 1.27 µM with HL-60(TB) leukemia. Also, the GI50 in the assay with RPMI-8226 leukemia was 2.16 µM; with SK-MEL-2 melanoma, 1.44 µM. For the same compound, the TGI with SNB-75 CNS is 12.9 µM and 35.9 µM; in the assay with HCT-15 colon it was > 100 µM and 23.2 µM; in the assay with BT-549 breast, 25.5 µM and 8.29 µM; with RXF 393 renal, 12.5 µM; with T-47D breast it was 13.6 µM and 22.4 µM; in the assay on HL-60(TB) leukemia it was 5.39 µM. Besides, the TGI in the assay on RPMI-8226 leukemia is 6.28 µM and 3.73 µM.

For `CC(C)(C)[Si](C)(C)OC1[C@@H](CNC(=O)NC(=O)CCl)O[C@@H](n2cnc3c(N)ncnc32)[C@H]1O[Si](C)(C)C(C)(C)C` (stereo partly specified), the GI50 was 0.867 µM in the assay on SNB-75 CNS; 0.832 µM in the assay on HCT-15 colon; 0.869 µM with BT-549 breast; 0.859 µM with RXF 393 renal; 1.03 µM in the assay with T-47D breast; 0.893 µM with HL-60(TB) leukemia. For the same compound, the GI50 in the assay with RPMI-8226 leukemia is 0.805 µM; in the assay with SK-MEL-2 melanoma it was 1.04 µM. Further, the TGI amounted to 2.47 µM with SNB-75 CNS; 1.67 µM in the assay on HCT-15 colon; 1.73 µM with BT-549 breast; 1.58 µM in the assay on RXF 393 renal; 2.13 µM in the assay with T-47D breast; 1.87 µM in the assay with HL-60(TB) leukemia. In addition, the TGI in the assay with RPMI-8226 leukemia is 2.34 µM; with SK-MEL-2 melanoma, 2.01 µM.

As to `O=C(c1ccco1)c1c(C(F)(F)F)n([O-])c2ccc(C(F)(F)F)cc2[n+]1=O`, the GI50 is 0.576 µM with SNB-75 CNS; 0.291 µM in the assay with HCT-15 colon; 0.177 µM with BT-549 breast; 0.179 µM in the assay on RXF 393 renal; 0.344 µM with T-47D breast; 0.0696 µM in the assay on HL-60(TB) leukemia. Moreover, the GI50 in the assay on RPMI-8226 leukemia was 0.383 µM; with SK-MEL-2 melanoma, 1.71 µM. In addition, the TGI in the assay on SNB-75 CNS was found to be 1.55 µM; in the assay on HCT-15 colon it was 0.749 µM; in the assay with BT-549 breast, 0.339 µM; with RXF 393 renal, 0.512 µM; in the assay on T-47D breast, 1.75 µM; in the assay on HL-60(TB) leukemia, 0.31 µM. The TGI in the assay with RPMI-8226 leukemia is 1.68 µM; in the assay with SK-MEL-2 melanoma, 3.49 µM.

Take `CC(C)c1[nH]nc2c1N=C(c1ccccc1Cl)c1cc([N+](=O)[O-])ccc1N2`: the GI50 was 1.31 µM in the assay with SNB-75 CNS; 3.86 µM with HCT-15 colon; 6.66 µM with BT-549 breast; 3.64 µM in the assay with RXF 393 renal; 8.75 µM in the assay with T-47D breast; 4.99 µM in the assay on HL-60(TB) leukemia. In addition, the GI50 with RPMI-8226 leukemia was 8.85 µM; with SK-MEL-2 melanoma, 5.49 µM. The TGI in the assay with SNB-75 CNS is above 17.6 µM; in the assay with HCT-15 colon, above 25 µM; in the assay with BT-549 breast, above 22.1 µM; in the assay with RXF 393 renal, 8.45 µM; in the assay with T-47D breast, above 23 µM; with HL-60(TB) leukemia, 12.2 µM. In addition, the figures for the TGI in the assay on RPMI-8226 leukemia and in the assay with SK-MEL-2 melanoma were above 22.6 µM and 13.4 µM, respectively.

On to `COc1cc2c(Nc3cc(Cl)c(OC)c(Cl)c3)c(C#N)cnc2cc1OCCCN1CCN(C)CC1`, for which the GI50 with SNB-75 CNS was 6.57 µM; with HCT-15 colon, 1.32 µM; in the assay with BT-549 breast, 3.83 µM; with RXF 393 renal, 1.01 µM; with T-47D breast it was 2.02 µM; in the assay with HL-60(TB) leukemia, 1.78 µM. Further, the GI50 is 1.47 µM with RPMI-8226 leukemia and 1.32 µM in the assay with SK-MEL-2 melanoma. For the same compound, the TGI turned out to be 25.2 µM in the assay with SNB-75 CNS; 12.1 µM with HCT-15 colon; 13.8 µM with BT-549 breast; 2.5 µM in the assay on RXF 393 renal; 9.65 µM in the assay on T-47D breast; 4.03 µM in the assay with HL-60(TB) leukemia. Also, the TGI stood at 4.79 µM in the assay on RPMI-8226 leukemia and 2.9 µM with SK-MEL-2 melanoma.
